The results in this text go back to patent publication US5591714A, “Derivatives of A82846” (priority 1994, dated 1997).

Structures are written as SMILES. ≈ marks a conversion by molar mass, not a printed value.

Test [1] deals with vancomycin-susceptible (Vanco^s) E. faecium and E. faecalis. Put plainly: Susceptibility of vancomycin-susceptible enterococci, agar-dilution MIC. In kind it is cell-based. The conditions noted are these: n = 34 strains; end points read after 24-hour incubation. As to the method:
(§1) End points were read after 24-hour incubation. The ratio was calculated by dividing the mean MIC of the compound against the vancomycin-resistant strains by the mean MIC of the compound against the vancomycin-susceptible strains.

A further test deals with Streptococcus pneumoniae. Put plainly: In vivo activity, experimentally infected mice (ED50). As to conditions: Streptococcus pneumoniae infection; doses administered subcutaneously to mice 1 and 4 hours postinfection.
Test [2] deals with Klebsiella pneumoniae X68. Put plainly: MIC, standard agar-dilution assay. Type of test: cell-based. Here is the method:
(§2) The formula I compounds have in vitro and in vivo activity against Gram-positive pathogenic bacteria. The MIC's were determined using a standard agar-dilution assays.

The test system of test [3] is Staphylococcus epidermidis 222. Put plainly: MIC, standard agar-dilution assay. Type of test: cell-based. As to the method:
as §2

Test [4] concerns Staphylococcus epidermidis EPI270. Put plainly: MIC, standard agar-dilution assay. In kind it is cell-based. Here is the method: as §2
Test [5] concerns Staphylococcus aureus NRRL X1.1. Put plainly: MIC, standard agar-dilution assay. In kind it is cell-based. As to the method: as §2
The test system of test [6] is Klebsiella pneumoniae X26. Put plainly: MIC, standard agar-dilution assay. In kind it is cell-based. Here is the method:
as §2

Test [7] deals with Klebsiella pneumoniae KAE. Put plainly: MIC, standard agar-dilution assay. Type of test: cell-based. As to the method:
as §2

A further test has as its system Escherichia coli EC14. Put plainly: MIC, standard agar-dilution assay. In kind it is cell-based. As to the method: as §2
For test [8], the system named is Haemophilus influenzae C.L. Put plainly: MIC, standard agar-dilution assay. In kind it is cell-based. As to the method: as §2
The test system of the next test is Escherichia coli TEM. Put plainly: MIC, standard agar-dilution assay. Type of test: cell-based. Here is the method: as §2
For test [9], the system named is Streptococcus pyogenes C203. Put plainly: MIC, standard agar-dilution assay. Type of test: cell-based. As to the method:
as §2

For a further test, the system named is Escherichia coli N10. Put plainly: MIC, standard agar-dilution assay. Type of test: cell-based. Here is the method: as §2
In test [10] the test system is Staphylococcus aureus V41. Put plainly: MIC, standard agar-dilution assay. Type of test: cell-based. Here is the method:
as §2

The subject of test [11] is Staphylococcus aureus X400. Put plainly: MIC, standard agar-dilution assay. In kind it is cell-based. Here is the method: as §2
Test [12] deals with Haemophilus influenzae 76. Put plainly: MIC, standard agar-dilution assay. Type of test: cell-based. As to the method: as §2
The subject of test [13] is Staphylococcus aureus S13E. Type of test: cell-based. Here is the method: as §2
The test system of test [14] is Streptococcus pneumoniae Park 1. In kind it is cell-based. As to the method:
as §2

Test [15] has as its system vancomycin-resistant (Vanco^r) E. faecium and E. faecalis. Put plainly: Susceptibility of vancomycin-resistant enterococci, agar-dilution MIC. In kind it is cell-based. As to conditions: for Geometric Mean MIC, Vanco^r Strains: n = 25 strains, end points read after 24-hour incubation. Here is the method: as §1
The next test concerns Streptococcus pyogenes. Put plainly: In vivo activity, experimentally infected mice (ED50). The conditions noted are these: Streptococcus pyogenes infection; doses administered subcutaneously to mice 1 and 4 hours postinfection.
The test system of another test is Staphylococcus aureus. The description is as above. The conditions noted are these: Staphylococcus aureus infection; doses administered subcutaneously to mice 1 and 4 hours postinfection.
Another test has as its system Enterococcus faecium X66. Put plainly: MIC, standard agar-dilution assay. In kind it is cell-based. As to the method:
as §2
^b Formerly Streptococcus faecium X66

For test [16], the system named is Enterococcus faecalis 2041. Put plainly: MIC, standard agar-dilution assay. In kind it is cell-based. As to the method:
as §2
^c Formerly Streptococcus faecalis 2041

As for `CNC(CC(C)C)C(=O)NC1C(=O)NC(CC(N)=O)C(=O)NC2C(=O)NC3C(=O)NC(C(=O)NC(C(=O)O)c4cc(O)cc(O)c4-c4cc3ccc4O)C(OC3CC(C)(N)C(O)C(C)O3)c3ccc(c(Cl)c3)Oc3cc2cc(c3OC2OC(CO)C(O)C(O)C2OC2CC(C)(NCC(c3ccccc3)c3ccccc3)C(O)C(C)O2)Oc2ccc(cc2Cl)C1O` (stereo not drawn) [Compound 45], the “Geometric Mean MIC, Vanco^s Strains” value in test [1] was found to be 1.7 µg/mL. Also, the ED50 with Streptococcus pneumoniae was determined as 0.1 mg/kg/2; with Streptococcus pyogenes, 0.1 mg/kg/2; in the test on Staphylococcus aureus, 0.77 mg/kg/2. For the same compound, the MIC is above 128 µg/mL in test [2]; “.5 µg/mL” in test [3]; 1 µg/mL (≈ 0.564 µM) in test [4]; “.25 µg/mL” in test [5]; above 128 µg/mL in [6]; above 128 µg/mL in test [7]. The MIC against Escherichia coli EC14 was above 128 µg/mL; in test [8], above 128 µg/mL; in the test on Escherichia coli TEM, above 128 µg/mL; in test [9], “.125 µg/mL”; against Escherichia coli N10, above 128 µg/mL; in test [10], “.5 µg/mL”. Further, the MIC entry in [11] was “.5 µg/mL”; in [12], above 128 µg/mL; in test [13], “.5 µg/mL”; in test [14], “.25 µg/mL”; against Enterococcus faecium X66, “.5 µg/mL”; in [16] it was “.5 µg/mL”. For the same compound, the “Ratio (mean MIC vancomycin-resistant strains / mean MIC vancomycin-susceptible strains)” value in test [15] was 5.5. For the same compound, the “Geometric Mean MIC, Vanco^r Strains” value in test [15] came out at 9.4 µg/mL.
As to `CCN(CC)c1ccc(CNC2(C)CC(OC3C(Oc4c5cc6cc4Oc4ccc(cc4Cl)C(OC4CC(C)(N)C(O)C(C)O4)C4NC(=O)C(NC(=O)C6NC(=O)C(CC(N)=O)NC(=O)C(NC(=O)C(CC(C)C)NC)C(O)c6ccc(c(Cl)c6)O5)c5ccc(O)c(c5)-c5c(O)cc(O)cc5C(C(=O)O)NC4=O)OC(CO)C(O)C3O)OC(C)C2O)cc1` (stereo not drawn) [Compound 56], in test [1], the “Geometric Mean MIC, Vanco^s Strains” value came out at 0.73 µg/mL. Also, the ED50 entry in the test on Streptococcus pneumoniae was “.09 mg/kg/2”; in the test on Streptococcus pyogenes, “.06 mg/kg/2”; in the test with Staphylococcus aureus, 0.65 mg/kg/2. Besides, the MIC in [2] was above 128 µg/mL; in [3], “.5 µg/mL”; in test [4] it was 2 µg/mL (≈ 1.14 µM); in test [5] it was “.5 µg/mL”; in test [6] it was above 128 µg/mL; in test [7] it was above 128 µg/mL. In addition, the MIC in the test on Escherichia coli EC14 was above 128 µg/mL; in test [8] it was above 128 µg/mL; in the test with Escherichia coli TEM, above 128 µg/mL; in [9], “.5 µg/mL”; against Escherichia coli N10, above 128 µg/mL; in test [10] it was “.5 µg/mL”. Further, the MIC in test [11] was 1 µg/mL (≈ 0.57 µM); in test [12] it was above 128 µg/mL; in test [13] it was 1 µg/mL (≈ 0.57 µM); in [14], “.5 µg/mL”; against Enterococcus faecium X66, 1 µg/mL (≈ 0.57 µM); in test [16], “.5 µg/mL”. Besides, the “Ratio (mean MIC vancomycin-resistant strains / mean MIC vancomycin-susceptible strains)” value in test [15] was 7.0. For the same compound, the “Geometric Mean MIC, Vanco^r Strains” value in test [15] was determined as 5.1 µg/mL.
